# How the values were obtained:
# [1] = MTT cytotoxicity test in LS174T cells; conditions: human
# Description: (§1) A transiently transfected LS174T human colon adenocarcinoma cells were used for assessment of PXR transcriptional activity. […] The reporter plasmid was transiently transfected to LS174T cells by lipofection (FuGENE 6). Cells were incubated for 24 h with tested compounds and/or vehicle (DMSO; 0.1% v/v), in the presence or absence of RIF (10 µM; LS174T cells). After the treatments, cells were lysed and luciferase activity was measured. In parallel, cell viability was determined by conventional MTT test [MTT = 3-(4,5-dimethylthiazol-2-yl)-2,5-diphenyltetrazolium bromide]; briefly: After the treatment, culture medium was replaced with fresh one and 100 µL of MTT reagent (5 mg/mL PBS) was added. Three hours later, the medium was removed, and cells were washed with PBS and lysed for 5 min with 1 mL of DMSO containing 1% ammonia. The lysate was diluted 20 times with DMSO (+1% ammonia) and absorbance at 540 nm was measured against blank (DMSO+1% ammonia) (TECAN, Schoeller Instruments LLC). Results were normalized to the control value (i.e. 100×A sample/A control) and expressed as percentage of control.
# CYP3A4 protein = CYP3A4 protein expression (Western blot) in HepG2 cells; format: cell-based, human; conditions: 48 h
# Description: Human colon adenocarcinoma cells LS174T (ECACC No. 87060401) and human hepatocellular carcinoma cells HepG2 (ECACC No. 85011430) were purchased from ECACC and were cultured in as recommended by manufacturer. Primary human hepatocytes used in this study were obtained from two sources: (i) from multiorgan donors HH52 and […] (male; 71 years); the use of liver cells of donors HH52 and HH54 was approved by “Ethical committee at the Faculty Hospital Olomouc”, and it was in accordance with Transplantation law #285/2002 Sb; “Ethical committee at the Faculty Hospital Olomouc” waived the authors from obtaining consent from the next of kin, regarding human hepatocytes obtained from liver donors HH52 and HH54. (ii) long-term human hepatocytes in monolayer Batch HEP220770 (person) were purchased from Biopredic International (Biopredic International, Rennes, France). Cells were cultured in serum-free medium. Cultures were maintained at 37°C and 5% CO2 in a humidified incubator.
# Total protein extracts were prepared as described elsewhere. SDS-PAGE gels (10%) were run according to the general procedure followed by the protein transfer onto PVDF membrane. The membrane was saturated with 5% non-fat dried milk. […] The density of bands was measured by densitometry.
# CYP3A4/5 = CYP3A4/5 catalytic activity, testosterone 6β-hydroxylation in human liver microsomes; conditions: pH 7.4, probe testosterone (6β-hydroxylation)
# LS174T cells = experiment: MTT cytotoxicity test in LS174T cells; conditions: read-out: MTT test IC50 (cytotoxicity); LS174T cells; 24 h incubation
# Description: as §1
# pregnane X receptor PXR = target: T1, pregnane X receptor PXR (Homo sapiens, UniProt O75469); conditions: read-out: PXR antagonist IC50; transfected LS174T cells; 24 h; in the presence of RIF (10 µM)
# T1 sequence (O75469 1-434): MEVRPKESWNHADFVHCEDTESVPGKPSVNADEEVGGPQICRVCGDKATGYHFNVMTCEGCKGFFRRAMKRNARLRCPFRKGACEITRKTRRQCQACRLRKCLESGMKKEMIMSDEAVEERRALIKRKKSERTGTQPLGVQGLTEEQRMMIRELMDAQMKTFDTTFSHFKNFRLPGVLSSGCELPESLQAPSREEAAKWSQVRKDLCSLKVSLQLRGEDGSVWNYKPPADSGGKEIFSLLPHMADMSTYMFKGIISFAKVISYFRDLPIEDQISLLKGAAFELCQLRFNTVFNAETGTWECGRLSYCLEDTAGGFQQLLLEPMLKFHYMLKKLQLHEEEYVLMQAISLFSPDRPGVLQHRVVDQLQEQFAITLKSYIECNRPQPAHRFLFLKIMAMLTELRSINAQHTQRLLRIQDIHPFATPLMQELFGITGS
smiles,measurement,setting,value
"CC(=O)N1CCN(c2ccc(OCC3COC(Cn4ccnc4)(c4ccc(Cl)cc4Cl)O3)cc2)CC1 (racemic) [(rac)-KET, ketoconazole]",IC50 at 24 h,[1],50.3 µM
same,CYP3A4 protein induction (in words),CYP3A4 protein,did not find convincing induction
same,activity at 10 µM,CYP3A4/5,3%
"CC(=O)N1CCN(c2ccc(OC[C@H]3CO[C@](Cn4ccnc4)(c4ccc(Cl)cc4Cl)O3)cc2)CC1 [(+)-KET, (2R,4S)-(+)-KET]",IC50,LS174T cells,52.7 µM
same,IC50,pregnane X receptor PXR,41.2 µM
"CC(=O)N1CCN(c2ccc(OC[C@@H]3CO[C@@](Cn4ccnc4)(c4ccc(Cl)cc4Cl)O3)cc2)CC1 [(−)-KET, (2S,4R)-(−)-KET]",IC50 at 24 h,[1],57.5 µM

# — paper PMC4208844 (PLoS ONE, 2014)
